Experimental data published in US9827219B2, “Compositions and methods for lowering levels of high-sensitivity C-reactive protein (HS-CRP) in a subject” (priority 2012, dated 2017).

Experiments:
Assay type in all cases: in vivo, human
Non-HDL-C = Non-HDL-C in patients with diabetes mellitus-2 (Example 2); details: 4 g/day, 12 weeks, on statin
Method: The effect of >96% E-EPA on lipid and inflammatory parameters was evaluated in patients with fasting triglyceride levels ≧150 mg/dl and <499 mg/dl on concomitant statin therapy. Patients with diabetes mellitus-2 were randomized and treated with either 2 g/day >96% E-EPA, 4 g/day >96%, or placebo for twelve weeks. At the end of the treatment period, several diabetes efficacy endpoints were evaluated including, TG, LDL-C, non-HDL-C, VLDL-C, Lp-PLA2, Apo B, TC, HDL-C, VLDL-TG, hs-CRP, oxLDL, and RLP-C.

IL-6 = test: ANCHOR study, IL-6; details: ANCHOR ITT, week 12
Method: (§1) A multi-center, placebo-controlled, randomized, double-blind, 12-week study was performed to evaluate the efficacy and safety of >96% E-EPA in patients with fasting triglyceride levels ≧200 mg/dl and <500 mg/dl despite statin therapy (the mean of two qualifying entry values needed to be ≧185 mg/dl and at least one of the values needs to be ≧200 mg/dl). The primary objective of the study was to determine the efficacy of >96% E-EPA 2 g daily and 4 g daily, compared to placebo, in lowering fasting TG levels in patients with high risk for cardiovascular disease and with fasting TG levels ≧200 mg/dL and <500 mg/dL, despite treatment to LDL-C goal on statin therapy.
(§2) The population for this study was men and women >18 years of age with a body mass index ≦45 kg/m^2 with fasting TG levels greater than or equal to 200 mg/dl and less than 500 mg/dl and on a stable does of statin therapy (with or without ezetimibe). The statin must have been atorvostatin, rosuvastatin or simvastatin. The dose of statin must have been stable for ≧4 weeks prior to the LDL-C/TG baseline qualifying measurement for randomization. The statin dose was optimal such that the patients are at their LDL-C goal at the LDL-C/TG baseline qualifying measurements. The same statin at the same dose was continued until the study ended.
(§3) Approximately 648 patients were randomized at approximately 80 centers in the U.S. The study was a 18- to 20-week, Phase 3, multi-center study consisting of 2 study periods: (1) A 6- to 8-week screening period that included a diet and lifestyle stabilization, a non-statin lipid-altering treatment washout, and an LDL-C and TG qualifying period and (2) A 12-week, double-blind, randomized, placebo-controlled treatment period.
(§4) After confirmation of qualifying fasting LDL-C and TG values, eligible patients entered a 12-week, randomized, double-blind treatment period. At Visit 4 (Week 0), patients were randomly assigned to 1 of the following treatment groups: • >96% E-EPA 2 g daily, • >96% E-EPA 4 g daily, or • Placebo.
Approximately 216 patients per treatment group were randomized in this study. Stratification was by type of statin (atorvastatin, rosuvastatin or simvastatin), the presence of diabetes, and gender. The lower-efficacy statin regimen included administration of 5-10 mg of simvastatin per day; the medium-efficacy statin regimens included administration of 5-10 mg rosuvastatin per day, 10-20 mg of atorvastatin per day, 20-40 mg of simvastatin per day, or 10-20 mg of simvastatin and 5-10 mg of ezetimibe per day; and the higher-efficacy statin regimens included administration of 20-40 mg of rosuvastatin per day, 40-80 mg of atorvastatin per day, 80 mg of simvastatin per day, or 40-80 mg of simvastatin and 5-10 mg of ezetimibe per day. […]

hsCRP = test: ANCHOR study, hsCRP (also by statin type and statin efficacy regimen)
Source text: Parameters (a)-(y) can be measured in accordance with any clinically acceptable methodology. For example, triglycerides, total cholesterol, HDL-C and fasting blood sugar can be sample from serum and analyzed using standard photometry techniques. VLDL-TG, LDL-C and VLDL-C can be calculated or determined using serum lipoprotein fractionation by preparative ultracentrifugation and subsequent quantitative analysis by refractometry or by analytic ultracentrifugal methodology. Apo A1, Apo B and hsCRP can be determined from serum using standard nephelometry techniques. Lipoprotein (a) can be determined from serum using standard turbidimetric immunoassay techniques. LDL particle number and particle size can be determined using nuclear magnetic resonance (NMR) spectrometry. Remnants lipoproteins and LDL-phospholipase A2 can be determined from EDTA plasma or serum and serum, respectively, using enzymatic immunoseparation techniques. Oxidized LDL, intercellular adhesion molecule-1 and interleukin-2 levels can be determined from serum using standard enzyme immunoassay techniques. These techniques are described in detail in standard textbooks, for example Tietz Fundamentals of Clinical Chemistry, 6th Ed. (Burtis, Ashwood and Borter Eds.), WB Saunders Company.
as §1, §2, §3, §4
Approximately 216 patients per treatment group were randomized in this study. Stratification was by type of statin (atorvastatin, rosuvastatin or simvastatin), the presence of diabetes, and gender. […]

## CC/C=C\C/C=C\C/C=C\C/C=C\C/C=C\CCCC(=O)OCC [AMR101, all-cis eicosa-5,8,11,14,17-pentaenoic acid ethyl ester]
Non-HDL-C; less-controlled diabetes (HbA1c ≧ median of 6.8%)
  Median placebo-adjusted percent change in Non-HDL-C from baseline to study end: −18.0%
Non-HDL-C; total diabetes
  Median placebo-adjusted percent change in Non-HDL-C from baseline to study end: −14.4%
Non-HDL-C; well-controlled diabetes (HbA1c < median of 6.8%)
  Median placebo-adjusted percent change in Non-HDL-C from baseline to study end: −11.3%
IL-6; 2 g/day
  IL-6 change from baseline (median): 6.9%
  IL-6 end-of-treatment value (median): 2.7 pg/mL
IL-6; 4 g/day
  IL-6 change from baseline (median): 3.1%
  IL-6 end-of-treatment value (median): 2.6 pg/mL
hsCRP; ANCHOR ITT, 2 g/day, week 12
  hsCRP end-of-treatment value, median: 2.5 mg/L
hsCRP; ANCHOR ITT, 4 g/day, week 12
  hsCRP change from baseline (median): −2.4%
  hsCRP end-of-treatment value, median: 2.0 mg/L
hsCRP; ANCHOR, atorvastatin, AMR101 2 g/day vs placebo, P 0.6563
  hsCRP median placebo-adjusted % change from baseline: −9.3%
hsCRP; ANCHOR, atorvastatin, AMR101 2 g/day, week 12
  hsCRP change from baseline, median %: 20.1%
hsCRP; ANCHOR, atorvastatin, AMR101 2 g/day, week 12, baseline 1.7
  hsCRP end-of-treatment value, median: 2.3 mg/L
hsCRP; ANCHOR, atorvastatin, AMR101 4 g/day vs placebo, P 0.0475
  hsCRP median placebo-adjusted % change from baseline: −36.7%
hsCRP; ANCHOR, atorvastatin, AMR101 4 g/day, week 12
  hsCRP change from baseline, median %: −11.7%
hsCRP; ANCHOR, atorvastatin, AMR101 4 g/day, week 12, baseline 2.1
  hsCRP end-of-treatment value, median: 1.5 mg/L
hsCRP; ANCHOR, higher-efficacy statin regimen, AMR101 2 g/day vs placebo, P 0.5227
  hsCRP median placebo-adjusted % change from baseline: −8.3%
hsCRP; ANCHOR, higher-efficacy statin regimen, AMR101 2 g/day, week 12
  hsCRP change from baseline, median %: 16.7%
hsCRP; ANCHOR, higher-efficacy statin regimen, AMR101 2 g/day, week 12, baseline 1.7
  hsCRP end-of-treatment value, median: 2.2 mg/L
hsCRP; ANCHOR, higher-efficacy statin regimen, AMR101 4 g/day vs placebo, P 0.0210
  hsCRP median placebo-adjusted % change from baseline: −28.6%
hsCRP; ANCHOR, higher-efficacy statin regimen, AMR101 4 g/day, week 12
  hsCRP change from baseline, median %: 0.0%
hsCRP; ANCHOR, higher-efficacy statin regimen, AMR101 4 g/day, week 12, baseline 2.5
  hsCRP end-of-treatment value, median: 2.0 mg/L
hsCRP; ANCHOR, lower-efficacy statin regimen, AMR101 2 g/day, week 12
  hsCRP change from baseline, median %: 13.3%
hsCRP; ANCHOR, lower-efficacy statin regimen, AMR101 2 g/day, week 12, baseline 1.5
  hsCRP end-of-treatment value, median: 1.7 mg/L
hsCRP; ANCHOR, lower-efficacy statin regimen, AMR101 4 g/day vs placebo, P 0.8843
  hsCRP median placebo-adjusted % change from baseline: 4.0%
hsCRP; ANCHOR, lower-efficacy statin regimen, AMR101 4 g/day, week 12
  hsCRP change from baseline, median %: 11.9%
hsCRP; ANCHOR, lower-efficacy statin regimen, AMR101 4 g/day, week 12, baseline 2.1
  hsCRP end-of-treatment value, median: 2.4 mg/L
hsCRP; ANCHOR, medium-efficacy statin regimen, AMR101 2 g/day vs placebo, P 0.2839
  hsCRP median placebo-adjusted % change from baseline: −8.3%
hsCRP; ANCHOR, medium-efficacy statin regimen, AMR101 2 g/day, week 12
  hsCRP change from baseline, median %: 8.7%
hsCRP; ANCHOR, medium-efficacy statin regimen, AMR101 2 g/day, week 12, baseline 2.3
  hsCRP end-of-treatment value, median: 2.6 mg/L
hsCRP; ANCHOR, medium-efficacy statin regimen, AMR101 4 g/day vs placebo, P 0.0034
  hsCRP median placebo-adjusted % change from baseline: −22.8%
hsCRP; ANCHOR, medium-efficacy statin regimen, AMR101 4 g/day, week 12
  hsCRP change from baseline, median %: −7.7%
hsCRP; ANCHOR, medium-efficacy statin regimen, AMR101 4 g/day, week 12, baseline 2.2
  hsCRP end-of-treatment value, median: 1.8 mg/L
hsCRP; ANCHOR, rosuvastatin, AMR101 2 g/day vs placebo, P 0.3922
  hsCRP median placebo-adjusted % change from baseline: −11.0%
hsCRP; ANCHOR, rosuvastatin, AMR101 2 g/day, week 12
  hsCRP change from baseline, median %: 0.0%
hsCRP; ANCHOR, rosuvastatin, AMR101 2 g/day, week 12, baseline 1.6
  hsCRP end-of-treatment value, median: 2.0 mg/L
hsCRP; ANCHOR, rosuvastatin, AMR101 4 g/day vs placebo, P 0.0217
  hsCRP median placebo-adjusted % change from baseline: −31.4%
hsCRP; ANCHOR, rosuvastatin, AMR101 4 g/day, week 12
  hsCRP change from baseline, median %: −1.2%
hsCRP; ANCHOR, rosuvastatin, AMR101 4 g/day, week 12, baseline 2.6
  hsCRP end-of-treatment value, median: 1.9 mg/L
hsCRP; ANCHOR, simvastatin, AMR101 2 g/day vs placebo, P 0.6562
  hsCRP median placebo-adjusted % change from baseline: −3.8%
hsCRP; ANCHOR, simvastatin, AMR101 2 g/day, week 12
  hsCRP change from baseline, median %: 11.0%
hsCRP; ANCHOR, simvastatin, AMR101 2 g/day, week 12, baseline 2.2
  hsCRP end-of-treatment value, median: 2.7 mg/L
hsCRP; ANCHOR, simvastatin, AMR101 4 g/day vs placebo, P 0.0755
  hsCRP median placebo-adjusted % change from baseline: −13.6%
hsCRP; ANCHOR, simvastatin, AMR101 4 g/day, week 12
  hsCRP change from baseline, median %: 0.0%
hsCRP; ANCHOR, simvastatin, AMR101 4 g/day, week 12, baseline 2.2
  hsCRP end-of-treatment value, median: 2.2 mg/L
hsCRP; ANCHOR, 2 g/day, concomitant atorvastatin
  hsCRP median placebo-adjusted change from baseline: statistically insignificant
hsCRP; ANCHOR, 2 g/day, concomitant rosuvastatin
  hsCRP median placebo-adjusted change from baseline: statistically insignificant
hsCRP; ANCHOR, 2 g/day, concomitant simvastatin
  hsCRP median placebo-adjusted change from baseline: statistically insignificant
hsCRP; ANCHOR, 2 g/day, high-efficacy statin therapy
  hsCRP median placebo-adjusted change from baseline: statistically insignificant
hsCRP; ANCHOR, 2 g/day, low-efficacy statin therapy
  hsCRP median placebo-adjusted change from baseline: statistically insignificant
hsCRP; ANCHOR, 2 g/day, medium-efficacy statin therapy
  hsCRP median placebo-adjusted change from baseline: statistically insignificant
hsCRP; ANCHOR, 4 g/day, concomitant atorvastatin
  hsCRP median placebo-adjusted change from baseline: −36.7%
hsCRP; ANCHOR, 4 g/day, concomitant rosuvastatin
  hsCRP median placebo-adjusted change from baseline: −31.4%
hsCRP; ANCHOR, 4 g/day, concomitant simvastatin
  hsCRP median placebo-adjusted change from baseline: statistically insignificant
hsCRP; ANCHOR, 4 g/day, high-efficacy statin therapy
  hsCRP median placebo-adjusted change from baseline: −28.6%
hsCRP; ANCHOR, 4 g/day, low-efficacy statin therapy (e.g., simvastatin 5-10 mg/day)
  hsCRP median placebo-adjusted change from baseline: statistically insignificant
